Assays:
[1] = tested on: 60 human cancer cell lines; experiment: NCI-60 SRB screen, whole panel; type: cell-based; details: Homo sapiens, 48 h; One Dose Mean Graph, Conc 1.00E-5 Molar; read-out: Mean Growth Percent
[2] = tested on: HCT-15; experiment: NCI-60 SRB screen; type: cell-based; details: Homo sapiens; HCT-15, 10^–5 Molar; read-out: Percent growth inhibition
Method: (§1) All newly synthesized compounds were selected and screened for anticancer activity against 60 human cancer cell lines representing 9 types of tumors including leukemia, melanoma, lung, colon, CNS, ovarian, renal, prostate, and breast cancers at the National Cancer Institute (NCI), Bethesda, USA. Screening was performed utilizing a single dose (10^−5 M concentration) and cells were incubated for 48 h. The end point was determined using sulforhodamine B (SRB) dye.
(§2) In this study, all the 16 newly synthesized compounds were submitted to the National Cancer Institute (USA) for anticancer evaluation and were selected and evaluated using 60 different human tumor cell lines representing lung, colon, CNS, ovarian, renal, prostate, breast cancers as well as leukemia and melanoma. A single dose (10^–5 Molar) was used for the initial screening for evaluation of anticancer activity. The 60 human cancer cell lines were provided by the national cancer institute biomedical research campus in Frederick, Maryland.
(§3) 60 different human cancer cell lines were utilized to screen the newly synthesized compounds for anticancer activity according to the previously reported standard procedure[24]–[26] as follows: • 96 well microtiter plates were used to inoculate the cells at […] ranging from 4000–5000 cells/well depending on the replication time of individual cell lines. Roswell Park Memorial Institute culture medium (RPMI 1640 medium) containing 2 mM L-glutamine and fetal bovine serum was used to grow the cells at 37 °C, 5% CO2, 95% air and 100% relative humidity for 24 h. • Fixation of cells in two plates of each cell line in situ was done using trichloroacetic acid (TCA). This represented the measurement of cell population at the time of drug addition (Tz). • Dimethyl sulfoxide (DMSO) was used to dissolve the synthesized compounds at 400-fold the desired final maximum concentration and frozen prior to use. This frozen concentrate was melted and diluted to twice the final concentration with complete medium containing 50 µg/mL gentamycin at time of drug addition. • The final compound concentration was obtained by adding 100 µL of the synthesized compounds to the appropriate microtiter wells already containing 100 µL followed by incubation of the plates at 37 °C, 5% CO2, 95% air and 100% relative humidity for 48 h. • Fixation of the cells was achieved by gentle addition of 50 µL of cold 50% (w/v) TCA followed by incubation for 60 min at 4 °C. The supernatant was then discarded and the plates are washed 5 times with tap water and air dried. • Sulphorhodamine B (SRB) solution (100 µL) at 0.4% (w/v) in 1% acetic acid was added to each plate followed by incubation for 10 min at room temperature. The unbound dye was then removed by washing five times with 1% acetic acid and plates were air dried. • Dissolution of the bound stain was done using […] trizma base and the absorbance was read at […] wavelength using an automated plate reader. • The percentage growth inhibition was calculated as follows: Ti-Tz/C-Tz×100forconcentrationswhichTi≥Tz Ti-Tz/Tz×100forconcentrationswhichTi<Tz • Time zero (Tz) • Control growth (C) • Test growth in the presence of drug (Ti)

[3] = tested on: UACC-62; experiment: NCI-60 SRB screen; type: cell-based; details: Homo sapiens; UACC-62, 10^–5 Molar; read-out: Percent growth inhibition
Method: as §1, §2, §3

[4] = tested on: SNB-75; experiment: NCI-60 SRB screen; type: cell-based; details: Homo sapiens; SNB-75, 10^–5 Molar; read-out: Percent growth inhibition
Method: as §1, §2, §3

[5] = tested on: HS 578T; experiment: NCI-60 SRB screen; type: cell-based; details: Homo sapiens, 10^–5 Molar, read-out: Percent growth inhibition
Method: as §1, §2, §3

[6] = tested on: CAKI-1; experiment: NCI-60 SRB screen; type: cell-based; details: Homo sapiens; CAKI-1, 10^–5 Molar; read-out: Percent growth inhibition
Method: as §1, §2, §3

[7] = tested on: SF-268; experiment: NCI-60 SRB screen; type: cell-based; details: Homo sapiens; SF-268, 10^–5 Molar; read-out: Percent growth inhibition
Method: as §1, §2, §3

[8] = tested on: UO-31; experiment: NCI-60 SRB screen; type: cell-based; details: Homo sapiens; UO-31, 10^–5 Molar; read-out: Percent growth inhibition
Method: as §1, §2, §3

[9] = tested on: K-562; experiment: NCI-60 SRB screen; type: cell-based; details: Homo sapiens, K562; K-562, 10^–5 Molar; read-out: Percent growth inhibition
Method: as §1, §2, §3

[10] = tested on: MCF7; experiment: NCI-60 SRB screen; type: cell-based; details: Homo sapiens; MCF7, 10^–5 Molar; read-out: Percent growth inhibition
Method: as §1, §2, §3

[11] = tested on: SN12C; experiment: NCI-60 SRB screen; type: cell-based; details: Homo sapiens, 10^–5 Molar, read-out: Percent growth inhibition
Method: as §1, §2, §3

[12] = tested on: PC-3; experiment: NCI-60 SRB screen; type: cell-based; details: Homo sapiens; PC-3, 10^–5 Molar; read-out: Percent growth inhibition
Method: as §1, §2, §3

[13] = tested on: LOX IMVI; experiment: NCI-60 SRB screen; type: cell-based; details: Homo sapiens, 10^–5 Molar, read-out: Percent growth inhibition
Method: as §1, §2, §3

[14] = tested on: MDA-MB-468; experiment: NCI-60 SRB screen; type: cell-based; details: Homo sapiens; MDA-MB-468, 10^–5 Molar; read-out: Percent growth inhibition
Method: as §1, §2, §3

[15] = tested on: melanoma SK-MEL-5; experiment: NCI-60 SRB screen; type: cell-based; details: Homo sapiens; SK-MEL-5, 10^–5 Molar; read-out: Percent growth inhibition
Method: as §1, §2, §3

[16] = tested on: NCI-H226; experiment: NCI-60 SRB screen; type: cell-based; details: Homo sapiens; NCI-H226, 10^–5 Molar; read-out: Percent growth inhibition
Method: as §1, §2, §3

[17] = tested on: IGROV1; experiment: NCI-60 SRB screen; type: cell-based; details: Homo sapiens, IGROV-1; IGROV1, 10^–5 Molar; read-out: Percent growth inhibition
Method: as §1, §2, §3

[18] = tested on: SNB-19; experiment: NCI-60 SRB screen; type: cell-based; details: Homo sapiens; SNB-19, 10^–5 Molar; read-out: Percent growth inhibition
Method: as §1, §2, §3

[19] = tested on: SF-539; experiment: NCI-60 SRB screen; type: cell-based; details: Homo sapiens; SF-539, 10^–5 Molar; read-out: Percent growth inhibition
Method: as §1, §2, §3

[20] = tested on: OVCAR-5; experiment: NCI-60 SRB screen; type: cell-based; details: Homo sapiens; OVCAR-5, 10^–5 Molar; read-out: Percent growth inhibition
Method: as §1, §2, §3

[21] = tested on: SW-620; experiment: NCI-60 SRB screen; type: cell-based; details: Homo sapiens; SW-620, 10^–5 Molar; read-out: Percent growth inhibition
Method: as §1, §2, §3

[22] = tested on: RXF 393; experiment: NCI-60 SRB screen; type: cell-based; details: Homo sapiens, 48 h; RXF 393, 10^–5 Molar; read-out: Percent growth inhibition
Method: as §1, §2, §3

[23] = tested on: T-47D; experiment: NCI-60 SRB screen; type: cell-based; details: Homo sapiens, T47D, 10^–5 Molar, read-out: Percent growth inhibition
Method: as §1, §2, §3

| Structure (SMILES) | melting point [°C] | activity at 10 µM [1] [%] | inhibition at 10 µM [3] [%] | inhibition at 10 µM [4] [%] | inhibition at 10 µM [5] [%] | inhibition at 10 µM [6] [%] | inhibition at 10 µM [7] [%] | inhibition at 10 µM [8] [%] | inhibition at 10 µM [10] [%] | inhibition at 10 µM [11] [%] | further results |
| --- | --- | --- | --- | --- | --- | --- | --- | --- | --- | --- | --- |
| CCn1cc(C(=O)O)c(=O)c2cc(F)c(N3CCN(CC(=O)Nc4ccc(S(=O)(=O)Nc5ncccn5)cc4)C(C)C3)c(F)c21 (stereo not shown) [Compound 5e, 1-Ethyl-6,8-difluoro-7-(3-methyl-4-(2-oxo-2-((4-(N-(pyrimidin-2-yl)sulfamoyl)phenyl)amino)ethyl)piperazin-1-yl)-4-oxo-1,4-dihydroquinoline-3-carboxylic acid] | 282 to 284 | 106 | 7.88 | 6.39 | 2.04 | 7.59 | 1.55 | 9.64 | 5.24 | 3.07 | inhibition at 10 µM [2]: 2.43%; inhibition at 10 µM [9]: 1.07% |
| CCn1cc(C(=O)O)c(=O)c2cc(F)c(N3CCN(CC(=O)Nc4ccc(S(=O)(=O)Nc5nccc(C)n5)cc4)C(C)C3)c(F)c21 (stereo not shown) [Compound 5f, 1-Ethyl-6,8-difluoro-7-(3-methyl-4-(2-((4-(N-(4-methylpyrimidin-2-yl)sulfamoyl)phenyl)amino)-2-oxoethyl)piperazin-1-yl)-4-oxo-1,4-dihydroquinoline-3-carboxylic acid] | 247 to 249 | 102 | 5.79 | 4.26 | 0.4 | 11.4 | 1.74 | 16.7 | 3.33 | 1.96 | inhibition at 10 µM [12]: 2.04%; inhibition at 10 µM [13]: 4.41%; inhibition at 10 µM [14]: 3.63%; inhibition at 10 µM [15]: 193%; inhibition at 10 µM [16]: 2.92%; inhibition at 10 µM [17]: 0.3%; inhibition at 10 µM [18]: 1.26%; inhibition at 10 µM [19]: 0.79%; inhibition at 10 µM [20]: 1.48%; inhibition at 10 µM [21]: 3.4%; inhibition at 10 µM [22]: 0.98%; inhibition at 10 µM [23]: 1.12% |
